From patent US11534457B2, “Use of dextran sulfate” (priority 2017, dated 2022) come the findings set out here.

The assay concerns MBP expression in human Schwann cells. The assay is described as follows: Myelin basic protein (MBP) immunostaining. The format is cell-based. The note with it: 48 h. How it is done:
Neurons were cultured as 40,000 cells per well and Schwann cells 3,000 cells per. Cells were treated after 24 hours. The number of cells per well depended on the growth phenotype, proliferative capacity, etc.
Schwann cells growth medium was prepared by adding 10% of fetal bovine serum (FBS, PAA) to high-glucose DMEM and pre-warmed to 37° C. Cells were thawed in a 37° C. water bath for no longer than 2 min. Cells were gently transferred to a tube containing 10 ml of medium and centrifuged at 200 RCF for 5 min. Pellet was resuspended in 5 ml of medium and cells were counted with the Cellometer. 3,000 cells per well were seeded in previously coated 96-well plates. Cells were incubated at 37° C. with 5% CO2. Cells were allowed to settle for 24 hours before drug treatment.
LMW-DS was prepared in the culture media of choice for each cell line and added to the respective wells in the doses 0.01 and 0.1 mg/ml. For cell survival assays cells were analyzed after 24 and 48 hours in eight identical wells/dose/time point. Differentiation and protein expression assay was analyzed after 48 hours, also in octuplicates.
Cells were fixated in the wells. […]
The Acumen cytometer allows the direct cytometric analysis of attached cells without prior detachment. […] The protein content of the cells can also be directly measured and expressed as either ‘total protein content’ or ‘mean protein content’.

With “low molecular weight dextran sulfate [LMW-DS]”, the “size of MBP-positive cells vs control” value is “larger”. Also, the MBP expression result (0.01 and 0.1 mg/ml) is given as “significantly increased”.
